Assay results from the NIST ThermoML archive (doi:10.1021/je060415l).
± gives the expanded uncertainty stated by the source.

Conditions: Liquid, expansion method

CO [methanol]
Conditions | isothermal compressibility
208.17 K, 390 kPa | 7.15e-07 ± 4.1e-08 1/kPa
208.17 K, 2110 kPa | 6.78e-07 ± 4e-08 1/kPa
208.17 K, 5020 kPa | 6.63e-07 ± 4e-08 1/kPa
208.17 K, 7970 kPa | 6.47e-07 ± 3.9e-08 1/kPa
208.17 K, 10910 kPa | 6.37e-07 ± 3.9e-08 1/kPa
208.17 K, 13880 kPa | 6.24e-07 ± 3.9e-08 1/kPa
208.17 K, 16980 kPa | 6.12e-07 ± 3.9e-08 1/kPa
208.17 K, 20090 kPa | 6.02e-07 ± 3.8e-08 1/kPa
208.17 K, 23230 kPa | 5.9e-07 ± 3.8e-08 1/kPa
208.17 K, 30160 kPa | 5.68e-07 ± 3.8e-08 1/kPa
208.17 K, 33540 kPa | 5.57e-07 ± 3.8e-08 1/kPa
208.17 K, 37190 kPa | 5.46e-07 ± 3.7e-08 1/kPa
208.17 K, 41120 kPa | 5.34e-07 ± 3.7e-08 1/kPa
208.17 K, 45130 kPa | 5.26e-07 ± 3.7e-08 1/kPa
208.17 K, 49210 kPa | 5.15e-07 ± 3.7e-08 1/kPa
208.17 K, 53370 kPa | 5.04e-07 ± 3.7e-08 1/kPa
208.17 K, 57610 kPa | 4.95e-07 ± 3.6e-08 1/kPa
208.17 K, 61920 kPa | 4.85e-07 ± 3.6e-08 1/kPa
208.17 K, 66300 kPa | 4.78e-07 ± 3.6e-08 1/kPa
208.17 K, 70740 kPa | 4.7e-07 ± 3.6e-08 1/kPa
208.17 K, 75250 kPa | 4.6e-07 ± 3.6e-08 1/kPa
208.17 K, 79850 kPa | 4.53e-07 ± 3.6e-08 1/kPa
208.17 K, 84300 kPa | 4.48e-07 ± 3.6e-08 1/kPa
208.17 K, 88600 kPa | 4.41e-07 ± 3.6e-08 1/kPa
208.17 K, 92960 kPa | 4.35e-07 ± 3.6e-08 1/kPa
208.17 K, 97910 kPa | 4.18e-07 ± 3.5e-08 1/kPa
223.17 K, 1060 kPa | 7.59e-07 ± 4.2e-08 1/kPa
223.17 K, 3160 kPa | 7.44e-07 ± 4.1e-08 1/kPa
223.17 K, 5540 kPa | 7.28e-07 ± 4.1e-08 1/kPa
223.17 K, 8010 kPa | 7.14e-07 ± 4.1e-08 1/kPa
223.17 K, 10640 kPa | 7.01e-07 ± 4e-08 1/kPa
223.17 K, 13500 kPa | 6.84e-07 ± 4e-08 1/kPa
223.17 K, 16660 kPa | 6.62e-07 ± 4e-08 1/kPa
223.17 K, 19820 kPa | 6.59e-07 ± 4e-08 1/kPa
223.17 K, 22850 kPa | 6.45e-07 ± 3.9e-08 1/kPa
223.17 K, 25930 kPa | 6.33e-07 ± 3.9e-08 1/kPa
223.17 K, 29040 kPa | 6.2e-07 ± 3.9e-08 1/kPa
223.17 K, 32210 kPa | 6.08e-07 ± 3.9e-08 1/kPa
223.17 K, 35450 kPa | 5.98e-07 ± 3.8e-08 1/kPa
223.17 K, 38770 kPa | 5.87e-07 ± 3.8e-08 1/kPa
223.17 K, 42230 kPa | 5.74e-07 ± 3.8e-08 1/kPa
223.17 K, 45780 kPa | 5.66e-07 ± 3.8e-08 1/kPa
223.17 K, 49400 kPa | 5.55e-07 ± 3.8e-08 1/kPa
223.17 K, 53080 kPa | 5.45e-07 ± 3.7e-08 1/kPa
223.17 K, 56960 kPa | 5.3e-07 ± 3.7e-08 1/kPa
223.17 K, 61040 kPa | 5.23e-07 ± 3.7e-08 1/kPa
223.17 K, 65060 kPa | 5.15e-07 ± 3.7e-08 1/kPa
223.17 K, 69050 kPa | 5.06e-07 ± 3.7e-08 1/kPa
223.17 K, 73000 kPa | 4.98e-07 ± 3.7e-08 1/kPa
223.17 K, 76980 kPa | 4.9e-07 ± 3.6e-08 1/kPa
223.17 K, 81110 kPa | 4.82e-07 ± 3.6e-08 1/kPa
223.17 K, 85330 kPa | 4.72e-07 ± 3.6e-08 1/kPa
223.17 K, 89630 kPa | 4.66e-07 ± 3.6e-08 1/kPa
223.17 K, 94200 kPa | 4.54e-07 ± 3.6e-08 1/kPa
223.17 K, 98850 kPa | 4.51e-07 ± 3.6e-08 1/kPa
248.19 K, 1680 kPa | 8.6e-07 ± 4.4e-08 1/kPa
248.19 K, 4590 kPa | 8.53e-07 ± 4.4e-08 1/kPa
248.19 K, 7250 kPa | 8.36e-07 ± 4.4e-08 1/kPa
248.19 K, 9880 kPa | 8.18e-07 ± 4.3e-08 1/kPa
248.19 K, 12580 kPa | 8.01e-07 ± 4.3e-08 1/kPa
248.19 K, 15470 kPa | 7.74e-07 ± 4.2e-08 1/kPa
248.19 K, 18450 kPa | 7.62e-07 ± 4.2e-08 1/kPa
248.19 K, 21360 kPa | 7.48e-07 ± 4.2e-08 1/kPa
248.19 K, 24330 kPa | 7.3e-07 ± 4.1e-08 1/kPa
248.19 K, 27310 kPa | 7.19e-07 ± 4.1e-08 1/kPa
248.19 K, 30180 kPa | 7.07e-07 ± 4.1e-08 1/kPa
248.19 K, 33000 kPa | 6.92e-07 ± 4e-08 1/kPa
248.19 K, 35670 kPa | 6.84e-07 ± 4e-08 1/kPa
248.19 K, 38600 kPa | 6.64e-07 ± 4e-08 1/kPa
248.19 K, 41780 kPa | 6.56e-07 ± 4e-08 1/kPa
248.19 K, 44760 kPa | 6.45e-07 ± 3.9e-08 1/kPa
248.19 K, 47880 kPa | 6.33e-07 ± 3.9e-08 1/kPa
248.19 K, 51230 kPa | 6.19e-07 ± 3.9e-08 1/kPa
248.19 K, 54640 kPa | 6.09e-07 ± 3.9e-08 1/kPa
248.19 K, 57930 kPa | 5.99e-07 ± 3.8e-08 1/kPa
248.19 K, 61270 kPa | 5.85e-07 ± 3.8e-08 1/kPa
248.19 K, 64800 kPa | 5.75e-07 ± 3.8e-08 1/kPa
248.19 K, 68310 kPa | 5.66e-07 ± 3.8e-08 1/kPa
248.19 K, 71740 kPa | 5.57e-07 ± 3.8e-08 1/kPa
248.19 K, 75070 kPa | 5.49e-07 ± 3.7e-08 1/kPa
248.19 K, 78410 kPa | 5.41e-07 ± 3.7e-08 1/kPa
248.19 K, 81890 kPa | 5.31e-07 ± 3.7e-08 1/kPa
248.19 K, 85380 kPa | 5.25e-07 ± 3.7e-08 1/kPa
248.19 K, 88990 kPa | 5.18e-07 ± 3.7e-08 1/kPa
248.19 K, 92540 kPa | 5.18e-07 ± 3.7e-08 1/kPa
248.19 K, 96400 kPa | 5e-07 ± 3.7e-08 1/kPa
248.19 K, 100840 kPa | 4.9e-07 ± 3.6e-08 1/kPa
263.17 K, 1420 kPa | 9.64e-07 ± 4.7e-08 1/kPa
263.17 K, 3920 kPa | 9.42e-07 ± 4.6e-08 1/kPa
263.17 K, 6360 kPa | 9.2e-07 ± 4.6e-08 1/kPa
263.17 K, 8840 kPa | 9.02e-07 ± 4.5e-08 1/kPa
263.17 K, 11360 kPa | 8.82e-07 ± 4.5e-08 1/kPa
263.17 K, 13920 kPa | 8.62e-07 ± 4.4e-08 1/kPa
263.17 K, 16580 kPa | 8.42e-07 ± 4.4e-08 1/kPa
